4 compounds from patent US20180147296A1, “CARBON MATERIAL DELIVERY SYSTEMS AND METHODS” (The Research Foundation for The State University of New York, priority 2015, published 2018) can be followed below.

Data set [1] has as its system HeLa cells. Description: PrestoBlue viability assay, C6 ceramide. The data set is classed as cell-based. To be noted: 8 μg/mL of C6; 24 hrs. The method, then:
HeLa cells were seeded in flat-bottomed 96 well plates at a density of 5000 cells/well and were allowed to adhere overnight. Ceramide-loaded nanoparticles (O-GNRs or GNPs) were added to each well at various concentrations ranging from 10-100 μg/mL of nanoparticles. In order to ensure that any observed decrease in viability compared to untreated cells could not be attributed to the loading process, the loading process was repeated with only nanoparticles and incubated them with HeLa cells at the highest concentration used (100 μg/mL). After 24 hours, the media was aspirated and each well was rinsed twice with PBS. […] After 2 hours, the plates were removed and the fluorescence intensity of each well was measured using a Molecular Devices SpectraMax M2e (Sunnyvale, Calif., USA) with an excitation wavelength of 560 nm and an emission wavelength of 590 nm. […] The cell viability is expressed as a percent of the […] with the formula: […]
where Itest is the fluorescence intensity of cells exposed to ceramide-loaded nanoparticles, Icontrol is the fluorescence intensity of […], and Iblank is the fluorescence intensity from empty wells.
In a separate experiment, the efficacy of ceramide-loaded O-GNRs were compared to C6 ceramide without nanoparticles placed directly in the media. […] Viability was assessed with PrestoBlue using identical methods as described above.

For data set [2], the system named is HeLa cells. The experiment in a line: Live-cell confocal microscopy of NBD-ceramide. Format: cell-based. To be noted: 40 μg/mL loaded O-GNRs or equal NBD-ceramide in ethanol; one hour. Here is the method:
In order to visualize the uptake of ceramide-loaded nanoparticles into cells, we loaded O-GNRs with C6 ceramide conjugated to 4-Chloro-7-nitrobenzofurazan (NBD-ceramide). HeLa cells were seeded in glass-inset confocal dishes at a density of 7.5×10^4 cells/mL with 2 mL per plate and allowed to adhere overnight. The following day, cells were placed in a LiveCell™ stage top incubation platform (Pathology Devices Inc., Westminster, Md., USA) and NBD-ceramide-loaded O-GNRs were added to these plates at a concentration of 40 μg/mL. As a control, cells were also incubated with an equivalent amount of NBD-ceramide in ethanol in a separate experiment. The cells were then imaged using a Leica TCS SP8 Laser Scanning Confocal Microscope System (Buffalo Grove, Ill., USA) over a period of one hour at two minute intervals.

In data set [3] the test system is CG-4. Description: PrestoBlue assay, separate cultures. Format: cell-based, rat. To be noted: 80 μM Luc free or loaded; 24 hours. The method, then: (§1) Luc alone (80 μM), 80 μM Luc loaded O-GNR-PEG-DSPE and O-GNR-PEG-DSPE (same weight as used for Luc loading) were incubated with CMV/U251, A1-5/CMV/U251, MCF-7 and CG-4 cells (5×10^3 cells per well in 96 well plates) for 24 hours. Following the incubation period the media was removed and the cells were washed twice with 1×PBS. 100 μL of fresh media was added to each well, as well as 10 μL of PrestoBlue® to each well, and incubated for 4 hours. Fluorescence was measured by Cytofluor fluorescence multiwell plate reader (Infinite M200, Tecan Group Ltd, NC, USA) with excitation at 530 nm, and emission at 580 nm.
(§2) The cell viability in terms of % of unexposed cells is expressed as the percentage of (Ftest−Fblank)/(Fcontrol−Fblank), where Ftest is the fluorescence of the cells exposed to nanoribbon-drug sample, Fcontrol is the fluorescence of the untreated sample and Fblank is the fluorescence of the wells without any cells. The PrestoBlue® reading for all lysed cells was also taken for comparison.

In data set [4] the test system is A1-5/CMV/U251. Description: Annexin V/PI staining, flow cytometry. The data set is classed as cell-based. Conditions: 4 hours; for % AV+ / % PI + AV+ / % PI+ / % PI−AV−: A1-5/CMV/U251, free or on GONR. Here is the method: (§3) Luc alone and Luc-loaded O-GNR-PEG-DSPEs at different concentrations (5-80 μM) were incubated with CMV/U251, A1-5/CMV/U251 and CG-4 (5×10^5 cells/3 mL in 6-well plates) for 4 hours. Unexposed cells were used as control. Unloaded O-GNR-PEG-DSPEs in amounts equivalent to the loaded nanoparticles were also exposed to all the cell types as delivery agent control. The viability of the cells was analyzed by flow cytometry after Annexin V/PI staining using FACS Calibur Cell Sorter (BD Biosciences, San Jose, Calif.).
(§4) Annexin V (AV) is a 35 KDa phospholipid binding protein with an affinity for phosphotidyl serine. Early apoptotic cells show exposed phosphotidyl serine on their cell surface while it is still intact. PI on the other hand can only enter dead cells or early necrotic cells with compromised membranes. Thus, in flow cytometry AV+/PI+ represents dead cells, AV+/PI− represents cells in early apoptosis, AV−/PI+ represents dead or necrotic cells with compromised membranes, and AV−/PI− represents healthy living cells. […] However, 37% of cells were still living after 4 hours of exposure to O-GNR-PEG-DSPE loaded with 80 μM Luc.
On the technique in general: A flow cytometer gives signals particle by particle.

The test system of data set [5] is CMV/U251. Description: Annexin V/PI staining, flow cytometry. The data set is classed as cell-based. To be noted: 4 hours; for % AV+ / % PI + AV+ / % PI+ / % PI−AV−: CMV/U251, free or on GONR. The method, then: as §3, §4
Data set [6] is described as follows: PrestoBlue assay, CG-4-CMV/U251 co-culture. The data set is classed as cell-based. Conditions: read-out: viability compared to untreated controls. The method, then: (§5) MCF-7, CG-4 and CMV/U251 were seeded separately on 12 mm round glass coverslips (Fisherbrand, Fisher Scientific, PA) in 100 mm plates at a density of 2.2×10^6 cells and allowed to grow overnight. For the two separate co-culture condition experiments, one coverslip from each cell line was placed in 6 well plates, for a total of two coverslips per well. These cells were then incubated with Luc alone (80 μM), 80 μM Luc loaded O-GNR-PEG-DSPE or O-GNR-PEG-DSPE for 24 h. After the incubation period, the media was removed and the cells were washed twice with 1×PBS. Each coverslip was then transferred to its own well in 6 well plates containing 3 mL of media and 300 μL of PrestoBlue® reagent. After incubating for 4 h, the fluorescence intensity was recorded using the procedure described above.

A short description of data set [7]: PrestoBlue assay, separate cultures. Format: cell-based. Conditions: human, separate culture, 80 μM Luc free or loaded, read-out: viability compared to untreated controls. Here is the method:
as §1, §2

Data set [8] concerns MCF-7. Description: PrestoBlue assay, separate cultures. The data set is classed as cell-based. To be noted: 80 μM Luc free or loaded; 24 hours. Here is the method:
as §1, §2

Data set [9] is described as follows: PrestoBlue assay, MCF-7-CMV/U251 co-culture. The data set is classed as cell-based. Conditions: human, read-out: viability compared to untreated controls. The method, then: as §5
In data set [10] the test system is HeLa cells. Description: Confocal microscopy of C12 NBD ceramide. To be noted: 2 hours. Format: cell-based. The method, then: C12 NBD ceramide was loaded onto O-GNRs using the same procedure as C24 and C16 ceramide. HeLa cells were seeded in glass-inset confocal dishes at a density of 7.5×10^4 cells/mL with 2 mL per plate and allowed to adhere overnight. Cells were treated with either 5 μM fluorescent C12 NBD ceramide or an equivalent amount of fluorescent C12 NBD ceramide loaded on O-GNRs for 2 hours and imaged using a Leica TCS SP8 Laser Scanning Confocal Microscope System (Buffalo Grove, Ill., USA). Cells were pretreated with inhibitors of O-GNR uptake Dynasore and Gefitinib, endosome disruptor Desipramine, or no treatment for 30 minutes prior to the addition of ceramide or ceramide-loaded O-GNRs.

Take `CCCCCCCCCCCCC/C=C/[C@@H](O)[C@H](CO)NC(=O)CCCCC` [C6 ceramide, C6-Ceramide]: the “HeLa cell viability greater than lysed cells” value in data set [1] turned out to be 55.8%.
As for `CCCCCCCCCCCCC/C=C/C(O)C(CO)NC(=O)CCCCCNc1ccc([N+](=O)[O-])c2nonc12` [NBD ceramide, C6 N-[6-[(7-nitro-2-1,3-benzoxadiazol-4-yl)amino]hexanoyl]-D-erythro-sphingosine], the “uptake of NBD ceramide into cells (fluorescence)” value in data set [2] is recorded as “rapid uptake”.
As usually defined, the viability is a read-out of living cells in per cent, often relative to untreated cells. For `CCN(CC)CCNc1ccc(C)c2sc3ccccc3c(=O)c12` [Lucanthone], the “toxicity (PrestoBlue)” value in data set [3] and in data set [8] was “toxic” in each case. In addition, the cell death in data set [4] (40 μM free Luc) and in data set [5] (80 μM free Luc) was 100% in each case. The “% AV+” value in data set [4] (5 μM lucanthone), in [4] (10 μM lucanthone), in data set [4] (20 μM lucanthone), in data set [4] (40 μM lucanthone), in data set [4] (80 μM lucanthone) and in data set [5] (5 μM lucanthone) was 0% in each case. In addition, the “% AV+” value in [5] (10 μM lucanthone) was 0%; in [5] (20 μM lucanthone) it was 0%; in [5] (40 μM lucanthone), 0%; in [5] (80 μM lucanthone), 5%. Also, the “% PI + AV+” value in data set [4] (5 μM lucanthone) turned out to be 0%; in data set [4] (10 μM lucanthone) it was 0%; in [4] (20 μM lucanthone), 0%; in [4] (40 μM lucanthone) it was 0%; in data set [4] (80 μM lucanthone), 0%; in [5] (5 μM lucanthone), 17%. Also, the “% PI + AV+” value in data set [5] (10 μM lucanthone), in data set [5] (20 μM lucanthone), in data set [5] (40 μM lucanthone) and in data set [5] (80 μM lucanthone) was 0% in each case. Also, the “% PI+” value in data set [4] (5 μM lucanthone) amounted to 76%; in data set [4] (10 μM lucanthone), 92%; in data set [4] (20 μM lucanthone), 98%; in data set [4] (40 μM lucanthone), 100%; in data set [4] (80 μM lucanthone), 100%; in data set [5] (5 μM lucanthone), 78%. Also, the “% PI+” value in data set [5] (10 μM lucanthone) came to 95%; in data set [5] (20 μM lucanthone), 97%; in [5] (40 μM lucanthone), 97%; in data set [5] (80 μM lucanthone), 95%. The “% PI−AV−” value in data set [4] (5 μM lucanthone) is listed as 24%; in [4] (10 μM lucanthone), 8%; in data set [4] (20 μM lucanthone), 2%; in data set [4] (40 μM lucanthone) it was 0%; in data set [4] (80 μM lucanthone), 0%; in data set [5] (5 μM lucanthone), 20%. Further, the “% PI−AV−” value in [5] (10 μM lucanthone) is reported as 5%; in data set [5] (20 μM lucanthone), 3%; in data set [5] (40 μM lucanthone) it was 3%; in data set [5] (80 μM lucanthone), 0%; in data set [5] (80 μM lucanthone, listed as Luc) it was “no healthy living cells remaining”. For the same compound, in data set [5] (CMV/U251 and A1-5/CMV/U251, 5-80 μM), the “nature of cell death (dead cells PI+/AV−)” value is on record as “necrotic”. In addition, the viability at 24 h, 80 μM was ~15% in data set [6] (human, CMV/U251 cells on coverslips, co-cultured with CG-4 cells, CMV/U251 in co-culture with CG-4, 80 μM Luc free or loaded); ~30% in data set [6] (rat, CG-4 cells on coverslips, co-cultured with CMV/U251 cells, CG-4 in co-culture with CMV/U251, 80 μM Luc free or loaded); ~30% in data set [7] (A1-5/CMV/U251 cells); ~40% in data set [7] (CMV/U251 cells); ~28% in data set [9] (CMV/U251 cells on coverslips, co-cultured with MCF-7 cells, CMV/U251 in co-culture with MCF-7, 80 μM Luc free or loaded, or carrier alone); ~36% in data set [9] (MCF-7 cells on coverslips, co-cultured with CMV/U251 cells, MCF-7 in co-culture with CMV/U251, 80 μM Luc free or loaded, or carrier alone).
As to `CCCCCCCCCCCCC/C=C/[C@@H](O)[C@H](CO)NC(=O)CCCCCCCCCCCNc1ccc([N+](=O)[O-])c2nonc12` [C12 NBD ceramide], the “fluorescence compared with cells not treated with inhibitor” value in [10] (pretreated with Dynasore 30 minutes) and in data set [10] (pretreated with Gefitinib 30 minutes) was “no difference” in each case. For the same compound, the “endosome localization compared with cells not treated with desipramine” value in data set [10] (pretreated with desipramine 30 minutes) was “significantly less endosome localization”.
